In patent US8399683B2 (TetraLogic Pharmaceuticals, priority 2008, dated 2013):

Experiments:
XIAP BIR-3 = biological target: T1, XIAP BIR-3 (Homo sapiens, UniProt P98170); test: Fluorescence polarization binding affinity to XIAP BIR-3 (competition with AbuRPF-K(5-Fam)-NH2); settings: 5 nM labeled peptide, 40 nM BIR3, 15 min at RT, pH 7.5; reported as ranges
T1 construct: 40 nM of the respective IAP BIR3
In short: (§1)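 Test peptides at varied concentrations competed with 5 nM fluorescent Smac-mimetic tracer for 40 nM BIR3 domain, 15 min at RT in 0.1M potassium phosphate pH 7.5 with […] bovine g-globulin. Polarization (mP) read at 485/520 nm; KD reported in bins (A=<0.1 μM, B=0.1–1 μM, C>1–10 μM, D=>10 μM).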

cIAP-1 BIR-3 = cIAP-1 BIR-3 (Homo sapiens, UniProt Q13490); test: Fluorescence polarization binding affinity to cIAP-1 BIR-3 (competition with AbuRPF-K(5-Fam)-NH2); settings: 5 nM labeled peptide, 40 nM BIR3, 15 min at RT, pH 7.5; reported as ranges; read-out: KD (c-IAP-1 BIR3)
Sequence of cIAP-1 BIR-3 (Q13490 266-352 limits assumed): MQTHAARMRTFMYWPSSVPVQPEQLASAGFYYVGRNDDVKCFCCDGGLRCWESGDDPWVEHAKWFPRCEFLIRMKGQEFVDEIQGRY
In short: as §1

SK-OV-3 cells = test: Growth inhibition of ovarian cancer cell line SK-OV-3 (MTT assay, cell survival); type: cell-based; settings: Homo sapiens, drug concentration that results in 50% cell survival, 72 hrs incubation, reported as ranges
In short: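 After overnight seeding in McCoy's medium with 10% FBS, SK-OV-3 cells were exposed to compound at 0.003-10 μM for 72 hrs at 37° C. MTT was then added for 3 h, with DMSO solubilization and OD read at 535 nm. CC50 is the concentration giving 50% survival relative to untreated control, reported as ranges.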

T1 sequence (P98170 241-356 limits assumed): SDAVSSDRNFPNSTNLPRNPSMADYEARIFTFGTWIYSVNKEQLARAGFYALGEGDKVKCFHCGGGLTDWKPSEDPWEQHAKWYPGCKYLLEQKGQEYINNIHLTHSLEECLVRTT

SMILES	Kd (XIAP BIR-3)	Kd (cIAP-1 BIR-3)	CC50 (SK-OV-3 cells)
CN[C@@H](C)C(=O)N[C@H](C(=O)N1CC[C@@H]2[C@H]1[C@@H](c1c[nH]c3cc(F)ccc13)CN2c1nccc(Cl)n1)C1CCCCC1 [Example 76, N-{2-[4-(4-Chloro-pyrimidin-2-yl)-6-(6-fluoro-1H-indol-3-yl)-hexahydro-pyrrolo[3,2-b]pyrrol-1-yl]-1-cyclohexyl-2-oxo-ethyl}-2-methylamino-propionamide]	< 100 nM	< 100 nM	< 100 nM
CN[C@@H](C)C(=O)N[C@H](C(=O)N1CC[C@@H]2[C@H]1[C@@H](c1c[nH]c3cc(F)ccc13)CN2c1ncccn1)C(C)C [Example 77, N-{1-[6-(6-Fluoro-1H-indol-3-yl)-4-pyrimidin-2-yl-hexahydro-pyrrolo[3,2-b]pyrrole-1-carbonyl]-2-methyl-propyl}-2-methylamino-propionamide]	< 100 nM	< 100 nM	< 100 nM
CC[C@H](NC(=O)[C@H](C)NC)C(=O)N1CC[C@@H]2[C@H]1[C@@H](c1c[nH]c3cc(F)ccc13)CN2c1ncccn1 [Example 78, N-{1-[6-(6-Fluoro-1H-indol-3-yl)-4-pyrimidin-2-yl-hexahydro-pyrrolo[3,2-b]pyrrole-1-carbonyl]-propyl}-2-methylamino-propionamide]	100 to 1000 nM	< 100 nM	< 100 nM
CN[C@@H](C)C(=O)N[C@H](C(=O)N1CC[C@@H]2[C@H]1[C@@H](c1c[nH]c3cc(F)ccc13)CN2c1ncccn1)C(C)(C)C [Example 79, N-{1-[6-(6-Fluoro-1H-indol-3-yl)-4-pyrimidin-2-yl-hexahydro-pyrrolo[3,2-b]pyrrole-1-carbonyl]-2,2-dimethyl-propyl}-2-methylamino-propionamide]	< 100 nM	< 100 nM	< 100 nM
CN[C@@H](C)C(=O)N[C@@H](CO)C(=O)N1CC[C@@H]2[C@H]1[C@@H](c1c[nH]c3cc(F)ccc13)CN2c1ncccn1 [Example 80, N-{2-[6-(6-Fluoro-1H-indol-3-yl)-4-pyrimidin-2-yl-hexahydro-pyrrolo[3,2-b]pyrrol-1-yl]-1-hydroxymethyl-2-oxo-ethyl}-2-methylamino-propionamide]	< 100 nM	< 100 nM	< 100 nM
CN[C@@H](C)C(=O)N[C@@H](COC)C(=O)N1CC[C@@H]2[C@H]1[C@@H](c1c[nH]c3cc(F)ccc13)CN2c1ncccn1 [Example 81, N-{2-[6-(6-Fluoro-1H-indol-3-yl)-4-pyrimidin-2-yl-hexahydro-pyrrolo[3,2-b]pyrrol-1-yl]-1-methoxymethyl-2-oxo-ethyl}-2-methylamino-propionamide]	< 100 nM	< 100 nM	< 100 nM
CN[C@@H](C)C(=O)N[C@H](C(=O)N1CC[C@@H]2[C@H]1[C@@H](c1c[nH]c3cc(F)ccc13)CN2c1ncccn1)[C@@H](C)O [Example 82, N-{1-[6-(6-Fluoro-1H-indol-3-yl)-4-pyrimidin-2-yl-hexahydro-pyrrolo[3,2-b]pyrrole-1-carbonyl]-2-hydroxy-propyl}-2-methylamino-propionamide]	< 100 nM	< 100 nM	< 100 nM
CN[C@@H](C)C(=O)N[C@H](C(=O)N1CC[C@@H]2[C@H]1[C@@H](c1c[nH]c3cc(F)ccc13)CN2c1ncccn1)[C@@H](C)OC [Example 83, N-{1-[6-(6-Fluoro-1H-indol-3-yl)-4-pyrimidin-2-yl-hexahydro-pyrrolo[3,2-b]pyrrole-1-carbonyl]-2-methoxy-propyl}-2-methylamino-propionamide]	< 100 nM	< 100 nM	< 100 nM
CN[C@@H](C)C(=O)N[C@H](C(=O)N1C[C@@H](O)[C@@H]2[C@H]1[C@@H](c1c[nH]c3cc(F)ccc13)CN2C(=O)OCc1ccccc1)C1CCCCC1 [Example 84, 4-[2-Cyclohexyl-2-(2-methylamino-propionylamino)-acetyl]-3S-(6-fluoro-1H-indol-3-yl)-6-hydroxy-hexahydro-pyrrolo[3,2-b]pyrrole-1-carboxylic acid benzyl ester]	< 100 nM	< 100 nM	< 100 nM
CN[C@@H](C)C(=O)N[C@H](C(=O)N1C[C@@H](O)[C@H]2NC[C@H](c3c[nH]c4cc(F)ccc34)[C@H]21)C1CCCCC1 [Example 85]	100 to 1000 nM	< 100 nM	100 to 1000 nM
CN[C@@H](C)C(=O)N[C@H](C(=O)N1C[C@@H](O)[C@H]2NC[C@@H](c3c[nH]c4cc(F)ccc34)[C@H]21)C1CCCCC1 [Example 86, N-{1-Cyclohexyl-2-[6R-(6-fluoro-1H-indol-3-yl)-3-hydroxy-hexahydro-pyrrolo[3,2-b]pyrrol-1-yl]-2-oxo-ethyl}-2-methylamino-propionamide]	> 10000 nM	100 to 1000 nM	> 10000 nM
CN[C@@H](C)C(=O)N[C@H](C(=O)N1CC[C@H]2NC[C@@H](c3c[nH]c4cc(F)ccc34)[C@H]21)C1CCCCC1 [Example 87]	> 10000 nM	1000 to 10000 nM	> 10000 nM
C[C@H](N)C(=O)N[C@H](C(=O)N1CC[C@H]2NC[C@H](c3c[nH]c4cc(F)ccc34)[C@H]21)C1CCCCC1 [Example 88]	< 100 nM	< 100 nM	> 10000 nM
CN[C@@H](C)C(=O)N[C@H](C(=O)N1CC[C@H]2NC[C@@H](c3c[nH]c4ccccc34)[C@H]21)[C@@H](C)OC [Example 89]	> 10000 nM	100 to 1000 nM	> 10000 nM
CN[C@@H](C)C(=O)N[C@H](C(=O)N1CC[C@H]2NC[C@H](c3c[nH]c4ccccc34)[C@H]21)[C@@H](C)OC [Example 90]	< 100 nM	< 100 nM	1000 to 10000 nM
CN[C@@H](C)C(=O)N[C@H](C(=O)N1CC[C@H]2NC[C@H](c3cn(Cc4ccccc4)c4cc(F)ccc34)[C@H]21)C1CCCCC1 [Example 91]	< 100 nM	< 100 nM	100 to 1000 nM
C[C@H](N)C(=O)N[C@H](C(=O)N1CC[C@H]2NC[C@H](c3cn(Cc4ccccc4)c4cc(F)ccc34)[C@H]21)C1CCCCC1 [Example 92]	< 100 nM	< 100 nM	1000 to 10000 nM
CO[C@H](C)[C@H](NC(=O)[C@H](C)N)C(=O)N1CC[C@H]2NC[C@H](c3cn(Cc4ccccc4)c4cc(F)ccc34)[C@H]21 [Example 93]	< 100 nM	< 100 nM	1000 to 10000 nM
CC(=O)N1C[C@H](c2c[nH]c3cc(F)ccc23)[C@@H]2[C@H]1CCN2C(=O)[C@@H](NC(=O)[C@H](C)N)C1CCCCC1 [Example 94]	< 100 nM	< 100 nM	1000 to 10000 nM
CN[C@@H](C)C(=O)NC(C)C(=O)N1CC[C@@H]2[C@H]1[C@@H](c1c[nH]c3cc(F)ccc13)CN2C(C)=O (stereo partly drawn) [Example 95]	< 100 nM	< 100 nM	100 to 1000 nM
CN[C@@H](C)C(=O)N[C@H](C(=O)N1CC[C@@H]2[C@H]1[C@H](c1c[nH]c3cc(F)ccc13)CN2C(C)=O)C1CCCCC1 [Example 96]	1000 to 10000 nM	100 to 1000 nM	1000 to 10000 nM
CN[C@@H](C)C(=O)N[C@H](C(=O)N1CC[C@@H]2[C@H]1[C@@H](c1c[nH]c3ccccc13)CN2C1CCCCC1)[C@@H](C)OC [Example 97]	1000 to 10000 nM	100 to 1000 nM	100 to 1000 nM
